Tests used:
Type in all cases: cell-based
[1] = target: T1, RARα (Homo sapiens, UniProt P10276); assay: Transactivation assay for RAR alpha (gal4-RAR fusion, luciferase reporter, COS-7 cells); details: for Improvement (RARα activity ratio) / Improvement (RARα/RARβ ratio): compared with XXX-03; for RARα/RARβ ratio (*): fold-selectivity for RARα over RARβ; for RARα activity ratio: ratio of test compound EC50 to that of atRA on the same plate
T1 construct: gal4 (fusion partner); expressed in transfected cells; host or cells: COS-7
T1 sequence (P10276 183-417 limits assumed): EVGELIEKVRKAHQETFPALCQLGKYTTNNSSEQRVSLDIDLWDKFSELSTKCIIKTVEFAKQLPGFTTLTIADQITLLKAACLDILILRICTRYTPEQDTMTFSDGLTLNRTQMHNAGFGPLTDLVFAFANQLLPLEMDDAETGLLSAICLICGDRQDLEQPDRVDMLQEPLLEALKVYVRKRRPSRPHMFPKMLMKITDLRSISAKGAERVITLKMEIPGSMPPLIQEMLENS
Method: (§1) Transcriptional transactivation assays were performed with gal4 fusion receptor constructs, created using each of the RAR ligand binding domains, co-transfected with the pFR-luc (Stratagene™) reporter construct in COS-7 cells.
(§2) Briefly, on day 1, 96 well plates were seeded with 8000 cells per well then left to recover overnight. On day 2, the cells were co-transfected with 100 ng of reporter plasmid and 10 ng of the appropriate receptor plasmid per well using lipofectamine (Invitrogen™). On day 3, the lipofectamine containing media was replaced by a DMEM without phenol red, followed by the addition of test compound dissolved in 1 μL of DMSO to each well's 100 μL total volume. Finally, on day 4, the cells were lysed and their luciferase substrate was provided by the BrightGlo™ reagent (Promega™), the plates were then read on the MicroBeta TriLux™ (Perkin Elmer™).
(§3) Where replicate data has been generated, the data are quoted as a ratio of the mean EC50 from the separate experiments.

[2] = target: T2, RARβ (Homo sapiens, UniProt P10826); assay: Transactivation assay for RAR beta (gal4-RAR fusion, luciferase reporter, COS-7 cells); details: ratio of test compound EC50 to that of atRA; inactive = no agonist action at the highest concentration tested
T2 construct: gal4 (fusion partner); expressed in transfected cells; host or cells: COS-7
T2 sequence (P10826 183-417 limits assumed): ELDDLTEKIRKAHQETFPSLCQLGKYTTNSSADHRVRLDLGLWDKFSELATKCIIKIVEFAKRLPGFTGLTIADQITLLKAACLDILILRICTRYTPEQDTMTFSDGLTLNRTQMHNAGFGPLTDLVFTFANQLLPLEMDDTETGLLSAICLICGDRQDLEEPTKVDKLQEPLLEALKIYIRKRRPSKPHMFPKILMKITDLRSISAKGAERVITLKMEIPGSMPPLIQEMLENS
Method: as §1, §2, §3

[3] = target: T3, RARγ (Homo sapiens, UniProt P13631); assay: Transactivation assay for RAR gamma (gal4-RAR fusion, luciferase reporter, COS-7 cells); details: ratio of test compound EC50 to that of atRA; inactive = no agonist action at the highest concentration tested
T3 construct: gal4 (fusion partner); expressed in transfected cells; host or cells: COS-7
T3 sequence (P13631 185-419 limits assumed): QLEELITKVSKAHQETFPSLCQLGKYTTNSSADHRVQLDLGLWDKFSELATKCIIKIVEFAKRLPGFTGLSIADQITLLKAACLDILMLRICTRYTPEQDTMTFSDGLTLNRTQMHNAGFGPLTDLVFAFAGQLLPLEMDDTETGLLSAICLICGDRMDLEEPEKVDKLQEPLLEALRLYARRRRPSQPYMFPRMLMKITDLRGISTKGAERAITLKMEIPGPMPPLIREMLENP
Method: as §1, §2, §3

| Compound | Improvement (RARα activity ratio) [1] | Improvement (RARα/RARβ ratio) [1] | RARβ activity ratio [2] | RARγ activity ratio [3] | RARα/RARβ ratio (*) [1] | RARα activity ratio [1] | increase in RARα activity ([1]; compared with XXX-02) [fold] | increase in RARα activity ([1]; compared with XXX-01) [fold] | increase in RARα versus RARβ selectivity ([1]; compared with XXX-01) [fold] |
| --- | --- | --- | --- | --- | --- | --- | --- | --- | --- |
| O=C(O)c1ccc(NC(=O)c2cc(Cl)c(OC3CCC3)c(Cl)c2)cc1 [AAA-011, 4-(3,5-Dichloro-4-cyclobutoxybenzamido)benzoic acid] | ~2.6-fold | ~12-fold | 2960 | 21800 | – | – | – | – | – |
| O=C(O)c1ccc(NC(=O)c2cc(Cl)c(OCc3ccncc3)c(Cl)c2)cc1 [AAA-012, 4-(3,5-Dichloro-4-(pyridin-4-ylmethoxy)benzamido)benzoic acid] | – | – | 1300 | inactive | 2.4 | 533 | – | – | – |
| CCOc1c(Cl)cc(C(=O)Nc2cc(F)c(C(=O)O)c(F)c2)cc1C(F)(F)F [AAA-022, 4-(3-Chloro-4-ethoxy-5-(trifluoromethyl)benzamido)-2,6-difluorobenzoic acid] | – | – | inactive | inactive | >50 | 448 | 5 | – | – |
| CCOc1cc(C(=O)Nc2ccc(C(=O)O)cc2)cc(OCC)c1OCC [AAA-028, 4-(3,4,5-triethoxy-benzoylamino)-benzoic acid] | – | – | 64000 | inactive | 173.0 | 370 | – | – | – |
| CC(C)Oc1c(Cl)cc(C(=O)Nc2ccc(C(=O)O)cc2)cc1C(F)(F)F [AAA-034, 4-(3-Chloro-4-isopropoxy-5-(trifluoromethyl)benzamido)benzoic acid] | – | – | 244 | 1250 | 122 | 2 | – | – | – |
| COc1c(Cl)cc(C(=O)Nc2ccc(C(=O)O)cc2)cc1C(F)(F)F [AAA-035, 4-(3-Chloro-4-methoxy-5-(trifluoromethyl)benzamido)benzoic acid] | – | – | 2620 | 87000 | 8700 | 0.30 | – | – | – |
| O=C(O)c1ccc(NC(=O)c2cc(Cl)c(OC3CCC3)c(C(F)(F)F)c2)cc1 [AAA-036, 4-(3-Chloro-4-cyclobutoxy-5-(trifluoromethyl)benzamido)benzoic acid] | – | – | 215 | 2438 | 31 | 7.0 | – | – | – |
| CC(C)(C)Oc1c(Cl)cc(C(=O)Nc2ccc(C(=O)O)cc2)cc1C(F)(F)F [AAA-037, 4-(4-(tert-Butoxy)-3-chloro-5-(trifluoromethyl)benzamido)benzoic acid] | – | – | 324 | >2600 | 1300 | 0.25 | – | – | – |
| Cc1cc(NC(=O)c2cc(Cl)c(OC(C)(C)C)c(C(F)(F)F)c2)ccc1C(=O)O [AAA-038, 4-(4-(tert-Butoxy)-3-chloro-5-(trifluoromethyl)benzamido)-2-methylbenzoic acid] | – | – | 49 | 0.36 | 98 | 0.50 | – | – | – |
| CCOc1c(Cl)cc(C(=O)Nc2ccc(C(=O)O)c(C)c2)cc1C(F)(F)F [AAA-039, 4-(3-Chloro-4-ethoxy-5-(trifluoromethyl)benzamido)-2-methylbenzoic acid] | – | – | 177 | 2985 | 59 | 3.0 | – | – | – |
| Cc1cc(NC(=O)c2cc(Cl)c(OC(C)C)c(C(F)(F)F)c2)ccc1C(=O)O [AAA-040, 4-(3-Chloro-4-isopropoxy-5-(trifluoromethyl)benzamido)-2-methylbenzoic acid] | – | – | 60 | 194 | 55 | 1.1 | – | – | – |
| COc1c(Cl)cc(C(=O)Nc2ccc(C(=O)O)c(C)c2)cc1C(F)(F)F [AAA-041, 4-(3-Chloro-4-methoxy-5-(trifluoromethyl)benzamido)-2-methylbenzoic acid] | – | – | 238 | 31340 | 44 | 5.4 | – | – | – |
| CCOc1c(Br)cc(C(=O)Nc2ccc(C(=O)O)cc2)cc1C(F)(F)F [AAA-042, 4-(3-Bromo-4-ethoxy-5-(trifluoromethyl)benzamido)benzoic acid] | – | – | 369 | 6000 | 68 | 5.4 | – | – | – |

Next, values leading:

| Improvement (RARα activity ratio) [1] | Improvement (RARα/RARβ ratio) [1] | RARβ activity ratio [2] | RARγ activity ratio [3] | RARα/RARβ ratio (*) [1] | RARα activity ratio [1] | increase in RARα activity ([1]; compared with XXX-02) [fold] | increase in RARα activity ([1]; compared with XXX-01) [fold] | increase in RARα versus RARβ selectivity ([1]; compared with XXX-01) [fold] | Compound |
| --- | --- | --- | --- | --- | --- | --- | --- | --- | --- |
| ~0.9-fold | ~3.5-fold | 2530 | inactive | – | – | – | – | – | O=C(O)c1ccc(NC(=O)c2cc(Cl)c(OCC3CC3)c(Cl)c2)cc1 [AAA-010, 4-(3,5-Dichloro-4-(cyclopropylmethoxy)benzamido)benzoic acid] |
| – | – | 355 | inactive | 11.8 | 30 | – | – | – | CCOc1c(Cl)cc(NC(=O)c2ccc(C(=O)O)cc2)cc1Cl [AAA-013, 4-(3,5-Dichloro-4-ethoxyphenylcarbamoyl)benzoic acid] |
| – | – | 1350 | inactive | 23.3 | 58 | – | – | – | CCOc1c(Br)cc(NC(=O)c2ccc(C(=O)O)cc2)cc1Br [AAA-014, 4-(3,5-Dibromo-4-ethoxyphenylcarbamoyl)benzoic acid] |
| – | – | 9660 | inactive | 64.0 | 151 | – | – | – | CCOc1c(Cl)cc(C(=O)Nc2ccc(C(=O)O)c(Cl)c2)cc1Cl [AAA-018, 2-Chloro-4-(3,5-dichloro-4-ethoxybenzamido)benzoic acid] |
| ~100-fold | ~12-fold | 74 | 136 | – | – | – | – | – | CCOc1c(Cl)cc(C(=O)Nc2ccc(C(=O)O)c(C)c2)cc1Cl [AAA-019, 4-(3,5-Dichloro-4-ethoxybenzamido)-2-methylbenzoic acid] |
| – | – | 214 | inactive | 2.0 | 108 | – | – | – | CCOc1c(Cl)cc(NC(=O)c2ccc(C(=O)O)cn2)cc1Cl [AAA-020, 6-(3,5-Dichloro-4-ethoxyphenylcarbamoyl)nicotinic acid] |
| – | – | 805 | 27200 | 12.2 | 66 | – | – | – | CCOc1c(Cl)cc(C(=O)Nc2ccc(C(=O)O)cc2)cc1OC [AAA-024, 4-(3-Chloro-4-ethoxy-5-methoxybenzamido)benzoic acid] |
| – | – | 131 | inactive | – | – | – | 65 | 3 | CCOc1c(Cl)cc(C(=O)Nc2ccc(C(=O)O)cc2)cc1C(F)(F)F [AAA-025, 4-(3-Chloro-4-ethoxy-5-(trifluoromethyl)benzamido)benzoic acid] |
| – | – | 4920 | inactive | 27.3 | 180 | – | – | – | CCOc1c(Cl)cc(C(=O)Nc2ccc(C(=O)O)nc2)cc1Cl [AAA-026, 5-(3,5-Dichloro-4-ethoxybenzamido)picolinic acid] |
| ~3.8-fold | ~11-fold | 1920 | inactive | – | – | – | – | – | CCOc1c(Cl)cc(C(=O)Nc2ccc(C(=O)O)cc2)cc1Cl [AAA-029, 4-(3,5-Dichloro-4-ethoxy-benzoylamino)-benzoic acid] |
| ~3.1-fold | ~46-fold | 9525 | 5850 | – | – | – | – | – | COc1c(Cl)cc(C(=O)Nc2ccc(C(=O)O)cc2)cc1Cl [AAA-030, 4-(3,5-Dichloro-4-methoxy-benzoylamino)-benzoic acid] |
| – | – | 19 | 148 | 1.5 | 13 | – | – | – | CCOc1c(Cl)cc(C(=O)Nc2ccc(C(=O)O)c(C(F)(F)F)c2)cc1Cl [AAA-033, 4-(3,5-Dichloro-4-ethoxybenzamido)-2-(trifluoromethyl)benzoic acid] |
